This passage reports TGI and GI50 results from PubChem BioAssay (NCI).

Where “and” joins values, the source holds several entries; their conditions need not be identical. Equal entries are not always repeated.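 Tested at 5 concentrations; 48 h exposure; 96-well plates; endpoints linearly interpolated, else capped at highest concentration. GI50 marks 50% less growth. TGI denotes the concentration required for complete inhibition of growth.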

Test systems include MDA-MB-231 breast; HL-60(TB) leukemia; OVCAR-5 ovarian; NCI-H460 lung; SF-295 CNS; HCC-2998 colon; OVCAR-4 ovarian; HCT-116 colon; OVCAR-8 ovarian; T-47D breast.
What all share (test): growth of human tumour cells (NCI), 48 h

Turning to `CN/N=C(/CCN1CCCC1)CC(c1ccccc1)c1c(O)c2ccccc2oc1=O` (centres undefined), the TGI in the experiment with MDA-MB-231 breast, in the experiment with HL-60(TB) leukemia, in the experiment on OVCAR-5 ovarian, with NCI-H460 lung, in the experiment on SF-295 CNS and in the experiment with HCC-2998 colon was > 100 µM throughout. The TGI with OVCAR-4 ovarian, in the experiment on HCT-116 colon, in the experiment on OVCAR-8 ovarian and in the experiment with T-47D breast was > 100 µM each time.
As for `COc1cc(C2=NN(C(C)=O)C(c3ccc(OC(C)=O)cc3OC(C)=O)O2)c(OC(C)=O)c2ccccc12` (centres undefined), the GI50 with MDA-MB-231 breast was 0.543 µM; in the experiment with HL-60(TB) leukemia, 0.671 µM; in the experiment on OVCAR-5 ovarian, 5.64 µM; in the experiment with NCI-H460 lung it was 1.15 µM; in the experiment with SF-295 CNS, 1.68 µM; with HCC-2998 colon, 1.03 µM. The GI50 is 0.306 µM with OVCAR-4 ovarian, 0.346 µM in the experiment on HCT-116 colon, 0.426 µM with OVCAR-8 ovarian and 1.12 µM in the experiment on T-47D breast. Besides, the TGI in the experiment on MDA-MB-231 breast was > 56.4 µM; in the experiment with HL-60(TB) leukemia, 2.94 µM; in the experiment with OVCAR-5 ovarian it was > 66.8 µM; in the experiment on NCI-H460 lung it was > 33.4 µM; in the experiment on SF-295 CNS it was 23.8 µM; with HCC-2998 colon, 27.9 µM. The TGI turned out to be 8.64 µM in the experiment on OVCAR-4 ovarian, 12.2 µM in the experiment on HCT-116 colon, 33.7 µM in the experiment with OVCAR-8 ovarian and 9.97 µM with T-47D breast.
Turning to `CC1CN1CC(O)C(O)CN1CC1C` (centres undefined), the GI50 was 13.9 µM in the experiment with MDA-MB-231 breast; 0.305 µM with HL-60(TB) leukemia; 13.4 µM in the experiment with OVCAR-5 ovarian; 0.319 µM in the experiment with NCI-H460 lung; 0.494 µM in the experiment with SF-295 CNS; 6.21 µM with HCC-2998 colon. Besides, the GI50 in the experiment with OVCAR-4 ovarian is 6.18 µM; in the experiment with HCT-116 colon, 2.29 µM; in the experiment on OVCAR-8 ovarian, 1.13 µM; in the experiment with T-47D breast, 2.87 µM. Besides, the TGI in the experiment with MDA-MB-231 breast was 45.3 µM; with HL-60(TB) leukemia, 20.1 µM; in the experiment on OVCAR-5 ovarian, > 85.1 µM; in the experiment with NCI-H460 lung, 13 µM; with SF-295 CNS, > 33.4 µM; in the experiment on HCC-2998 colon, 23.4 µM. The TGI with OVCAR-4 ovarian is > 100 µM; in the experiment on HCT-116 colon it was > 100 µM; in the experiment on OVCAR-8 ovarian, > 71.2 µM; in the experiment with T-47D breast, > 71.4 µM.
For the molecule `COc1ccc2c(c1)C(=O)c1c-2n(CCCn2ccnc2)c(=O)c2ccccc12`, the GI50 in the experiment on MDA-MB-231 breast is 3.79 µM; in the experiment on HL-60(TB) leukemia it was 1.49 µM; in the experiment on OVCAR-5 ovarian, 1.24 µM; with NCI-H460 lung, 0.128 µM; in the experiment on SF-295 CNS, 0.101 µM; in the experiment with HCC-2998 colon, 0.72 µM. Also, the GI50 in the experiment on OVCAR-4 ovarian is 1.33 µM; with HCT-116 colon, 0.235 µM; in the experiment on OVCAR-8 ovarian, 0.602 µM; in the experiment with T-47D breast it was 0.399 µM. Besides, the TGI in the experiment with MDA-MB-231 breast was > 79.1 µM; in the experiment on HL-60(TB) leukemia, 18.4 µM; in the experiment on OVCAR-5 ovarian, 3.92 µM; in the experiment with NCI-H460 lung it was 1.46 µM; with SF-295 CNS, 2.13 µM; with HCC-2998 colon, 2.91 µM. Also, the TGI with OVCAR-4 ovarian is > 100 µM; with HCT-116 colon, 0.74 µM; in the experiment on OVCAR-8 ovarian, > 69.2 µM; in the experiment with T-47D breast, 5.68 µM.
As for `COc1cc(NC(=O)c2cc(O)c(CC=C(C)C)c(O)c2)cc2c1O[C@]1(C)CC[C@@H](O)C(C)(C)[C@H]1C2`, the GI50 is 3.56 µM in the experiment on MDA-MB-231 breast; 1.88 µM in the experiment with HL-60(TB) leukemia; 12 µM in the experiment on OVCAR-5 ovarian; 3.65 µM in the experiment with NCI-H460 lung; 1.25 µM in the experiment with SF-295 CNS; 10.6 µM in the experiment with HCC-2998 colon. Further, the GI50 is 7.52 µM in the experiment with OVCAR-4 ovarian, 3.37 µM with HCT-116 colon, 6.34 µM in the experiment on OVCAR-8 ovarian and 2.44 µM in the experiment with T-47D breast. Further, the TGI with MDA-MB-231 breast amounted to 19.8 µM; in the experiment on HL-60(TB) leukemia it was 18.7 µM; in the experiment on OVCAR-5 ovarian, 66.7 µM; in the experiment with NCI-H460 lung, 19.2 µM; with SF-295 CNS, 3.85 µM; with HCC-2998 colon it was 24.8 µM. In addition, the TGI in the experiment on OVCAR-4 ovarian is > 100 µM; with HCT-116 colon it was 15.4 µM; in the experiment with OVCAR-8 ovarian, 33.7 µM; in the experiment on T-47D breast, 22.6 µM.
Turning to `CCC1(O)C(=O)OCc2c1cc1n(c2=O)Cc2cc3ccc(C=O)cc3nc2-1` (centres undefined), the GI50 was 19.4 µM with MDA-MB-231 breast; 10.5 µM in the experiment with OVCAR-5 ovarian; 0.301 µM in the experiment with NCI-H460 lung; 2.07 µM in the experiment on SF-295 CNS; 2.52 µM with HCC-2998 colon; 10.3 µM in the experiment on OVCAR-4 ovarian. Moreover, the GI50 was 0.519 µM in the experiment with HCT-116 colon, 0.539 µM with OVCAR-8 ovarian and 0.412 µM in the experiment with T-47D breast. Also, the TGI in the experiment on MDA-MB-231 breast is 50 µM and 68.2 µM; with HL-60(TB) leukemia, 5.99 µM; in the experiment with OVCAR-5 ovarian it was 50 µM and 55.2 µM; in the experiment on NCI-H460 lung it was 6.59 µM and 26.4 µM; with SF-295 CNS, 50 µM and 52.6 µM; with HCC-2998 colon, 10.4 µM and 26.1 µM. Further, the TGI in the experiment with OVCAR-4 ovarian was 50 µM and 23.6 µM; with HCT-116 colon, 7.29 µM and 16.4 µM; with OVCAR-8 ovarian, 8.02 µM and 24.2 µM; in the experiment with T-47D breast, 3.31 µM and 8.72 µM.
